Read-outs that look alike come from different tables or passages of the source.
Columns and labels:
[1] = test system: 3T3 L1 fibroblasts differentiated to adipocytes; test: Glucose transport activity (14C-2-deoxy-D-glucose uptake); assay type: cell-based
Experimental: Glucose Transport Activity
3T3 L1 fibroblasts (ATCC) were grown in Dulbecco's modified Eagie's medium (DMEM) with 10% fetal bovine serum (FBS). The cells were plated at a density of 3×10^4 cells/well in 24-well plates. Two days after confluence was reached, the cells were treated for 3 days with […] isobutylmethylxanthine (IBMX), 1 μM dexamethasone, and 1.7 μM insulin. The cells were then transferred to DMEM with 10% fresh bovine serum with 1.7 μM insulin for 2 more days. The cells were maintained in DMEM with 10% FBS for an additional 4 days. Finally the cells were serum starved overnight in 0.1% bovine serum albumin (BSA) in DMEM prior to exposure to the test compounds.
The following day, the medium was replaced with 150 mM NaCl, 1.7 mM KCl, 0.9 mM CaCl2, K2HPO4 (pH 7.4) to which was added either the experimental compounds, or their vehicle (DMSO). Insulin or its vehicle (0.01% BSA) was diluted in the assay buffer (containing test compound or vehicle, respectively) to a final concentration of 5.6 nM. After incubation for 30 min at 37° C., 0.5 μCi/ml of ^14C-2-deoxy-D-glucose was added, and the incubation was continued for additional 30 min at 37° C. The cells were then washed 3 times with ice-cold PBS/20 mM glucose and lysed in 250 μl of lysis buffer (50 mM HEPES pH 7.6, 1% Triton X-100) for 30 min at room temperature. Radioactivity in the lysate was quantified by scintillation counting.
Once ^14C-2-deoxy-D-glucose is transported into the cell it is not released. Glucose transport is, therefore, proportional to the amount of radioactivity in the lysate. The concentration of compound necessary to produce an increase in glucose transport greater than the sum of the standard deviation of the vehicle control plus the largest standard deviation of a test sample (generally 150% of the vehicle control) was recorded as the EC (effective concentration) The results of the glucose transport activity assay are shown in Table 2,

[2] = molecular target: T1, β-kinase domain of the human insulin receptor (CKD) (Homo sapiens, UniProt P06213); test: 32P-cytoplasmic kinase domain (CKD) autophosphorylation assay; assay type: biochemical; conditions: 32P incorporated into CKD band, 10 minutes at room temperature, 50 μM ATP; test concentration not given
T1 construct: The complete β-kinase domain of the human insulin receptor (CKD); made in house
Experimental: ^32P-cytoplasmic Kinase Domain (CKD) Autophosphorylation Assay
The complete β-kinase domain of the human insulin receptor (CKD) was expressed in, and purified from, baculovirus. CKD (4.0 μg/ml), in a solution of 29 mM HEPES (pH 7.6), 0.05% Triton X-100, 10 mM MgCl2, 2 mM MnCl2 (50 μl final volume), was combined with 50 μM ATP, and 5 μCi ^32P-ATP (3000 Ci/mmol.). A test compound, or the vehicle (DMSO), was added to a final DMSO concentration of 1%. The mixture was incubated for 10 minutes at room temperature. The reaction was terminated by the addition of 10 μl of 200 mM EDTA. A 30 μl volume was removed, mixed with 5 μl of 6× Laemmeli sodium dodecyl sulfate (SDS) treatment buffer, and heated to 95° C. for 5 minutes. A 20 μl aliquot was then run on an SDS-PAGE gel. The radioactivity incorporated into the CKD band is quantified by phosphorimaging of the gel, or scintillation counting of the excised bands.
The potency of a compound for increasing phosphorylation is expressed as a percentage of the vehicle level.

[3] = concentration producing increase in glucose transport generally 150% of the vehicle control, insulin 5.6 nM, read-out: Glucose Transport EC (effective concentration)
[4] = Mus musculus, 3T3-L1, concentration producing increase in glucose transport generally 150% of the vehicle control, insulin 5.6 nM, read-out: Glucose Transport EC (effective concentration)
[5] = Mus musculus, 3T3-L1, no EC recorded, not tested above 3.2 μM, insulin 5.6 nM, read-out: Glucose Transport EC (effective concentration), cells printed NT

T1 sequence (P06213 980-1382 limits assumed): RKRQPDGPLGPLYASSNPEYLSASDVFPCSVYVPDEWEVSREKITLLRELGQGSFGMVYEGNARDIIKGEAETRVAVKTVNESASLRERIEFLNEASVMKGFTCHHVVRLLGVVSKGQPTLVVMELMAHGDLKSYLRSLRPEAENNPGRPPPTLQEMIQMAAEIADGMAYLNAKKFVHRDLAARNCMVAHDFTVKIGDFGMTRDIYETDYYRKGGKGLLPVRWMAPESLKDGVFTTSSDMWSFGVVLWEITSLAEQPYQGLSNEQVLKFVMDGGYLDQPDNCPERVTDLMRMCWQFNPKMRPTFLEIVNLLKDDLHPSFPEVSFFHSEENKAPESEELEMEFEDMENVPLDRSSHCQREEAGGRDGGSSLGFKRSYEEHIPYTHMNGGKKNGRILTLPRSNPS

| Compound | EC50 [1, 3] | CKD phosphorylation (percentage of the vehicle level) [2] | EC50 [1, 4] | other results |
| --- | --- | --- | --- | --- |
| 3,5-bis[N-(6-sulfonaphthyl)carbamoyl] benzoic acid [Compound 5] | 10 µM | 115.6% |  |  |
| O=C(O)c1ccc(NC(=O)c2cc(C(=O)Nc3ccc(C(=O)O)cc3)cc(C(=O)Nc3ccc(C(=O)O)cc3)c2)cc1 [Compound 1, 4-({3,5-bis[N-(4-carboxyphenyl)carbamoyl]phenyl}carbonylamino)benzoic acid] |  | 103.7% | 3.2 µM |  |
| O=C(Nc1cccc2cc(S(=O)(=O)O)ccc12)c1cc(C(=O)Nc2cccc3cc(S(=O)(=O)O)ccc23)cc(C(=O)Nc2cccc3cc(S(=O)(=O)O)ccc23)c1 [Compound 2, 5-({3,5-bis[N-(6-sulfonaphthyl)carbamoyl]phenyl}carbonylamino)naphthalene-2-sulfonic acid] | 3.2 µM | 136.8% |  |  |
| O=C(Nc1ccc(S(=O)(=O)O)cc1)c1cc(C(=O)Nc2ccc(S(=O)(=O)O)cc2)cc(C(=O)Nc2ccc(S(=O)(=O)O)cc2)c1 [Compound 3, 4-({3,5-bis[N-(4-sulfophenyl)carbamoyl]phenyl}carbonylamino)benzenesulfonic acid] |  | 98.9% | 3.2 µM |  |
| O=C(Nc1cccc2ccc(S(=O)(=O)[O-])cc12)c1cc(C(=O)Nc2cccc3ccc(S(=O)(=O)[O-])cc23)cc(C(=O)Nc2cccc3ccc(S(=O)(=O)[O-])cc23)c1.[Na+].[Na+].[Na+] [Compound 4, 8-({3,5-bis[N-(7-sulfonaphthyl)carbamoyl]phenyl}carbonylamino)naphthalene-2-sulfonic acid] |  | 134.9% |  | EC50 ([1]; Mus musculus, 3T3-L1, read-out: Glucose Transport EC (effective concentration)): 3.2 µM |
| O=C(Nc1cccc2c(S(=O)(=O)O)cccc12)c1cc(C(=O)Nc2cccc3c(S(=O)(=O)O)cccc23)cc(C(=O)Nc2cccc3c(S(=O)(=O)O)cccc23)c1 [Compound 6, 5-({3,5-bis[N-(5-sulfonaphthyl)carbamoyl]phenyl}carbonylamino)naphthalene-sulfonic acid] | 3.2 µM | 122.7% |  |  |
| O=C(Nc1ccc(S(=O)(=O)O)c2ccccc12)c1cc(C(=O)Nc2ccc(S(=O)(=O)O)c3ccccc23)cc(C(=O)Nc2ccc(S(=O)(=O)O)c3ccccc23)c1 [Compound 7, 4-({3,5-bis[N-(4-sulfonaphthyl)carbamoyl]pheny}carbonylamino)naphthalene-sulfonic acid] | 3.2 µM | 114.1% |  |  |
| O=C(Nc1ccccc1S(=O)(=O)O)c1cc(C(=O)Nc2ccccc2S(=O)(=O)O)cc(C(=O)Nc2ccccc2S(=O)(=O)O)c1 [Compound 8, 2-({3,5-bis[N-(2-sulfophenyl)carbamoyl]phenyl}carbonylamino)benzenesulfonic acid] |  | 113.2% | 3.2 µM |  |
| O=C(Nc1ccc2ccccc2c1S(=O)(=O)O)c1cc(C(=O)Nc2ccc3ccccc3c2S(=O)(=O)O)cc(C(=O)Nc2ccc3ccccc3c2S(=O)(=O)O)c1 [Compound 9, 2-({3,5-bis[N-(1-sulfo(2-naphthyl))carbamoyl]phenyl}carbonylamino)naphthalene-sulfonic acid] |  | 98.8% |  | EC50 ([1]; no EC recorded, not tested above 3.2 μM, insulin 5.6 nM, read-out: Glucose Transport EC (effective concentration), cells printed NT): > 3.2 µM |
| O=C(Nc1cccc(S(=O)(=O)O)c1)c1cc(C(=O)Nc2cccc(S(=O)(=O)O)c2)cc(C(=O)Nc2cccc(S(=O)(=O)O)c2)c1 [Compound 10, 3-({3,5-bis[N-(3-sulfophenyl)carbamoyl]phenyl}carbonylamino)benzenesulfonic acid] |  | 92.0% | 3.2 µM |  |
| O=C(Nc1ccc2cc(S(=O)(=O)O)ccc2c1)c1cc(C(=O)Nc2ccc3cc(S(=O)(=O)O)ccc3c2)cc(C(=O)Nc2ccc3cc(S(=O)(=O)O)ccc3c2)c1 [Compound 11, 6-({3,5-bis[N-(6-sulfo(2-naphthyl))carbamoyl]phenyl}carbonylamino)naphthalene-2-sulfonic acid] |  | 148.2% |  | EC50 [1, 5]: > 3.2 µM |
| O=C(Nc1ccc2c(S(=O)(=O)O)cccc2c1)c1cc(C(=O)Nc2ccc3c(S(=O)(=O)O)cccc3c2)cc(C(=O)Nc2ccc3c(S(=O)(=O)O)cccc3c2)c1 [Compound 12, 6-({3,5-bis[N-(5-sulfo(2-naphthyl))carbamoyl]phenyl}carbonylamino)naphthalene-sulfonic acid] | 3.2 µM | 136.6% |  |  |
| O=C(Nc1ccc2ccc(S(=O)(=O)O)cc2c1)c1cc(C(=O)Nc2ccc3ccc(S(=O)(=O)O)cc3c2)cc(C(=O)Nc2ccc3ccc(S(=O)(=O)O)cc3c2)c1 [Compound 13, 7-({3,5-bis[N-(7-sulfo(2-naphthyl))carbamoyl]phenyl}carbonylamino)naphthalene-2-sulfonic acid] |  | 125.5% |  | EC50 [1, 5]: > 3.2 µM |
| O=C(Nc1ccccc1C(=O)O)c1cc(C(=O)Nc2ccccc2C(=O)O)cc(C(=O)Nc2ccccc2C(=O)O)c1 [Compound 14, 2-({3,5-bis[N-(2-carboxyphenyl)carbamoyl]phenyl}carbonylamino)benzoic acid] |  | 105.3% |  | EC50 [1, 5]: > 3.2 µM |
| O=C(Nc1cccc2cccc(S(=O)(=O)O)c12)c1cc(C(=O)Nc2cccc3cccc(S(=O)(=O)O)c23)cc(C(=O)Nc2cccc3cccc(S(=O)(=O)O)c23)c1 [Compound 15, 8-({3,5-bis[N-(8-sulfonaphthyl)carbamoyl]phenyl}carbonylamino)naphthalene-sulfonic acid] | 3.2 µM | 156.0% |  |  |
| COC(=O)c1cc(NC(=O)c2cc(C(=O)Nc3cc(C(=O)OC)cc(C(=O)OC)c3)cc(C(=O)Nc3cc(C(=O)OC)cc(C(=O)OC)c3)c2)cc(C(=O)OC)c1 [Compound 16, methyl 3-[(3,5-bis{N-[3,5-bis(methoxycarbonyl)phenyl]carbamoyl}phenyl)-carbonylamino]-5-(methoxycarbonyl)benzoate] |  | 83.7% | 1.6 µM |  |
| O=C(O)c1ccc(CNC(=O)c2cc(C(=O)NCc3ccc(C(=O)O)cc3)cc(C(=O)NCc3ccc(C(=O)O)cc3)c2)cc1 [Compound 17, 4-{[(3,5-bis{N-[(4-carboxyphenyl)methyl]carbamoyl}phenyl)carbonylamino]-methyl}benzoic acid] |  | 90.4% | 3.2 µM |  |
| COC(=O)c1cccc(NC(=O)c2cc(C(=O)Nc3cccc(C(=O)OC)c3)cc(C(=O)Nc3cccc(C(=O)OC)c3)c2)c1 [Compound 18, methyl 3-[(3,5-bis{N-[3-(methoxycarbonyl)phenyl]carbamoyl}phenyl)carbonyl-amino]benzoate] |  | 94.54% | 3.2 µM |  |
| COC(=O)c1ccc(CNC(=O)c2cc(C(=O)NCc3ccc(C(=O)OC)cc3)cc(C(=O)NCc3ccc(C(=O)OC)cc3)c2)cc1 [Compound 19, methyl 4-({[3,5-bis(N-{[4-(methoxycarbonyl)phenyl]methyl}carbamoyl)phenyl]-carbonylamino}methyl)benzoate] |  | 104.0% |  | EC50 [1, 5]: > 3.2 µM |
| COC(=O)c1ccc(NC(=O)c2cc(C(=O)Nc3ccc(C(=O)OC)cc3)cc(C(=O)Nc3ccc(C(=O)OC)cc3)c2)cc1 [Compound 20, methyl 4-[(3,5-bis{N-[4-(methoxycarbonyl)phenyl]carbamoyl}phenyl)carbonyl-amino]benzoate] |  | 77.4% | 3.2 µM |  |
